Reference: patent US5254582A, “Antitumor compositions and methods” (Eli Lilly and Company, priority 1992, dated 1993)

What was measured:
[1] = system: HXGC3 human colon adenocarcinoma xenograft; experiment: percent inhibition of tumor growth and mortality in mice bearing HXGC3 human colon adenocarcinoma xenografts, oral; type: in vivo; conditions: daily for 10 days
Excerpt: (§1) Two of the tumor models used for showing the antineoplastic activity of the sulfonylurea of this invention were the human colon xenografts, HXGC3 and VRC5. J. A. Houghton and D. M. Taylor, British Journal of Cancer, 37:213-223 (1978). These tumors were obtained from St. Jude's Children's Research Hospital and have been widely used as human tumor models.
(§2) First passage tumors were stored in liquid nitrogen, using standard techniques. The transplanted tumor was reestablished from the Tumor Bank every six months or as needed. The tumor was maintained by serial passage twice weekly in nude mice.
(§3) In the procedures utilized here, the tumor was removed from passage animals and minced into 1- to 3-mm cubic fragments using sterile techniques. Tumor pieces were checked for sterility using both Antibiotic medium 1 and Brain Heart Infusion (Difco, Detroit, Mi.). The tumor pieces were implanted into the recipient CDl Nu/Nu mice subcutaneously in an axillary site by trochar.
(§4) Drug therapy on the appropriate schedule was initiated seven days after tumor implantation. The compound being tested was mixed with 2.5% Emulphor EL620 from GAF Corporation (1:40 dilution in 0.9% saline). The total dosage volume for each administration was 0.5 mL. All animals were weighed at the beginning and end of administration of the subject compounds. Food and water were provided ad libitum.
(§5) Each control group and each dosage level of the treated groups consisted of 10 mice selected at random from the pool of implanted animals. The formulations were administered orally by gavage with the use of an 18-gauge needle. Compounds were dosed daily for 10 days.
(§6) The tumor was measured five days after treatment ended with two dimensional measurements (width and length) of the tumor taken using digital electronic calipers interfaced to a microcomputer. J. F. Worzalla, et al., Investigational New Drugs, 8:241-251 (1990). Tumor weights were calculated from these measurements using the following formula:
(§7) Tumor weight (mg)=[tumor length (mm)×[tumor width (mm)]^2 ]
(§8) At least one control group of an equal number of mice was treated with the same volume of 2.5% Emulphor only. The percent inhibition is determined by subtracting the ratio of the mean tumor size of the test group relative to the control group from one and multiplying the result by 100.
(§9) The results of several experiments in mice bearing the HXGC3 and VRC5 human colon adenocarcinomas when the instant compounds were administered orally are provided in Table I. In the Table, column 1 describes the particular human tumor xenograft being studied; column 2 gives the dosage level of the compound of Formula I in milligrams per kilogram of body weight; column 3 describes the percent inhibition of tumor growth; and column 4 tallies the number of mice which died during the course of the experiment relative to the total number of animals in the group.

[2] = toxicological study in male Fischer 344 rats, morphological, hematological and pathological studies; type: in vivo, rat (male Fischer 344); conditions: rat, 65 to 1000 mg/kg, oral gavage, daily for 14 days
Procedure: For these experiments thirty male Fischer 344 rats were administered varying dosages of a formulation containing the compound of Formula I. These formulations contained between 65 and 1000 mg of the active ingredient per kilogram of body weight of the rat, in combination with a suitable excipient, usually containing 10% acacia. The compounds were administered orally by gavage. The compounds were dosed daily for 14 days. All animals were weighed at the beginning and end of administration of the subject compounds. Food and water were provided ad libitum.
Upon completion of the testing regimen, morphological and hematological studies were performed.

[3] = system: transplanted human tumors; experiment: activity against transplanted human tumors in mice bearing different xenograft tumors; type: in vivo
Excerpt: as §1

[4] = system: VRC5 human colon adenocarcinoma xenograft; experiment: percent inhibition of tumor growth and mortality in mice bearing VRC5 human colon adenocarcinoma xenografts, oral; type: in vivo; conditions: daily for 10 days
Excerpt: as §1, §2, §3, §4, §5, §6, §7, §8, §9

[5] = cited from earlier work
[6] = in vivo; cited from earlier work
[7] = phase I clinical studies; cited from earlier work

## O=C(Nc1ccc(Cl)c(Cl)c1)NS(=O)(=O)c1ccc2c(c1)CCO2 [compound of Formula I, N-[[(3,4-dichlorophenyl)amino]carbonyl]-2,3-dihydrobenzofuran-5-sulfonamide]
[1]; 150 mg/kg
  Percent Inhibition of tumor growth: 81%
  Toxic/Total (mice which died relative to total number in group): 0/10
[1]; 300 mg/kg
  Percent Inhibition of tumor growth: 98%
  Toxic/Total (mice which died relative to total number in group): 0/10
[1]; 600 mg/kg
  Percent Inhibition of tumor growth: 98%
  Toxic/Total (mice which died relative to total number in group): 0/10
[1]; 1200 mg/kg
  Percent Inhibition of tumor growth: 99%
  Toxic/Total (mice which died relative to total number in group): 0/10
[2]
  hemolytic anemia: absence of hemolytic anemia
  pathological tissue effects: effectiveness against tissues with a high mitotic index, including lymph nodes, thymus, gut, testis, and bone marrow
  unexpected tissue changes: Unexpected tissue changes were not observed
[3]; in vivo
  therapeutic index: high therapeutic index
[3]; mice bearing different xenograft tumors
  activity against transplanted human tumors in vivo: active against transplanted human tumors in vivo
[4]; 150 mg/kg
  Percent Inhibition of tumor growth: 97%
  Toxic/Total (mice which died relative to total number in group): 0/10
[4]; 300 mg/kg
  Percent Inhibition of tumor growth: 98%
  Toxic/Total (mice which died relative to total number in group): 0/10
[4]; 600 mg/kg
  Percent Inhibition of tumor growth: 100%
  Toxic/Total (mice which died relative to total number in group): 0/10
[4]; 1200 mg/kg
  Percent Inhibition of tumor growth: 100%
  Toxic/Total (mice which died relative to total number in group): 0/10

## O=C(Nc1ccc(Cl)cc1)NS(=O)(=O)c1ccc2c(c1)CCC2 [sulofenur, N-(indan-5-sulfonyl)-N'-(4-chlorophenyl)urea]
[5]; animal trials, urine
  main urinary metabolites: mono-hydroxy- and mono-ketoindanyl metabolites
[5]; mice, rats, dogs, and monkeys
  adsorption and metabolism: good adsorption and extensive metabolism
[6]
  dose-limiting toxicity: hemolytic anemia
[7]
  major metabolites in patients: 1-hydroxy- and 1-ketoindansulfonylureas
